According to US20050101595A1, “N-containing cycloalkyl-substituted amino-thiazole derivatives and pharmaceutical compositions for inhibiting cell proliferation and methods for their use” (PFIZER INC., priority 2003, published 2005):

What was measured:
CDK2/Cyclin A = CDK2/Cyclin A (Homo sapiens, UniProt P24941); experiment: Inhibition of CDK2/Cyclin A Retinoblastoma Kinase Activity; assay type: biochemical; conditions: for inhibition at 0.05 µM: read-out: % inhibition of CDK2 (@ 0.05 μM), compound at 0.05 μM; for Ki: apparent Ki, CDK2/proteolyzed cyclin A, Rb fragment substrate, 25 μM ATP
Protocol: Cyclin-dependent kinase activity was measured by quantifying the enzyme-catalyzed, time-dependent incorporation of radioactive phosphate from [^32P]ATP or [^33P]ATP into a protein substrate. Unless noted otherwise, assays were performed in 96-well plates in a total volume of 50 μL, in the presence of 10 mM HEPES (N-[2-hydroxyethyl]piperazine-N′-[2-ethanesulfonic acid]) (pH 7.4), 10 mM MgCl2, 25 μM adenosine triphosphate (ATP), 1 mg/mL ovalbumin, 5 μg/mL leupeptin, 1 mM dithiothreitol, 10 mM β-glycerophosphate, 0.1 mM sodium vanadate, 1 mM sodium fluoride, 2.5 mM ethylene glycol-bis(β-aminoethyl ether)-N,N,N′N′-tetraacetic acid (EGTA), 2% (v/v) dimethylsulfoxide, and 0.03-0.4 μCi [^32/33P]ATP per reaction. Reactions were initiated with enzyme, incubated at 30° C., and terminated after 20 minutes by the addition of ethylenediaminetetraacetic acid (EDTA) to 250 mM. The phosphorylated substrate was then captured on a nitrocellulose or phosphocellulose membrane using a 96-well filtration manifold, and unincorporated radioactivity was removed by repeated washing with 0.85% phosphoric acid. Radioactivity was quantified by exposing the dried membranes to a phosphorimager.
Inhibition was measured relative to control wells that contained all reaction components including 2% (v/v) DMSO but no compound, after subtraction of background radioactivity measured in the absence of enzyme. Apparent Ki values of discrete compounds were measured by assaying enzyme activity in the presence of different inhibitor compound concentrations and subtracting the background radioactivity measured in the absence of enzyme. The kinetic parameters (kcat, Km for ATP) were measured for each enzyme under the usual assay conditions by determining the dependence of initial rates on ATP concentration. Inhibition data were fit to an equation for competitive inhibition using Kaleidagraph (Synergy Software), or were fit to an equation for competitive tight-binding inhibition using the software KineTic (BioKin, Ltd.).
Inhibition of CDK2/Cyclin A Retinoblastoma Kinase Activity:
CDK2 was purified using published methodology (Rosenblatt et al., “Purification and Crystallization of Human Cyclin-dependent Kinase 2,” J. Mol. Biol., vol. 230, 1993, pp. 1317-1319) from insect cells that had been infected with a baculovirus expression vector. […] A complex of CDK2 and proteolyzed cyclin A was prepared and purified by gel filtration. The substrate for this assay was the same Rb substrate fragment used for the CDK4 assays, and the methodology of the CDK2/delta cyclin A and the CDK4/delta cyclin D3 assays was essentially the same, except that CDK2 was present at 10 nM or 19 nM. The duration of the assay was 60 or 75 minutes, during which the time-dependence of product formation was linear and initial rate conditions were met. And, the percent inhibitions of the compounds of Example O through Example R were calculated as described above and shown in Table 2.

HCT-116 cell line = experiment: Inhibition of cell growth, tetrazolium salt (MTT) assay; assay type: cell-based; conditions: Homo sapiens, MTT; for inhibition at 0.175 µM: HCT-116, HCT-116 cells, compound at 0.175 uM; for IC50: HCT-116, 120 h, first HCT-116 column (c4), three to five days, read-out: HCT-116 IC50
Method in brief: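 McCoy's 5A cultures; 4 h pre-incubation; compound dilutions in 0.5% v/v DMSO; 3–5 d, 37° C, 5% CO2; MTT 0.2 mg/mL final, 4 h; formazan dissolved in DMSO, A540; vs 0.5% DMSO vehicle.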

| Structure (SMILES) | inhibition at 0.05 µM (CDK2/Cyclin A) [%] | inhibition at 0.175 µM (HCT-116 cell line) [%] | Ki (CDK2/Cyclin A) [nM] | IC50 (HCT-116 cell line) [nM] |
| --- | --- | --- | --- | --- |
| CN(CCO)CCCS(=O)(=O)N1CCC(Nc2nc(N)c(C(=O)c3c(F)cccc3F)s2)CC1 [Example V148] | 83 | 2 | – | – |
| COC(=O)CCCNCCCS(=O)(=O)N1CCC(Nc2nc(N)c(C(=O)c3c(F)cccc3F)s2)CC1 [Example V141] | 82 | 22 | – | – |
| Nc1nc(NC2CCN(S(=O)(=O)CCCNCCO)CC2)sc1C(=O)c1c(F)cccc1F [Example V91] | 81 | 13 | – | – |
| Nc1nc(NC2CCN(S(=O)(=O)CCCN3CCSCC3)CC2)sc1C(=O)c1c(F)cccc1F [Example V104] | 86 | 42 | – | – |
| Nc1nc(NC2CCN(S(=O)(=O)CCCNC3CCCNC3=O)CC2)sc1C(=O)c1c(F)cccc1F (centres unmarked) [Example V162] | 83 | 9 | – | – |
| CNCCCS(=O)(=O)N1CCC(Nc2nc(N)c(C(=O)c3c(F)cccc3F)s2)CC1 [Example V86] | 61 | 22 | – | – |
| COC(=O)CN(C)CCCS(=O)(=O)N1CCC(Nc2nc(N)c(C(=O)c3c(F)cccc3F)s2)CC1 [Example V136] | 76 | 9 | – | – |
| Nc1nc(NC2CCN(S(=O)(=O)CCCNc3ccc4cccc(O)c4n3)CC2)sc1C(=O)c1c(F)cccc1F [Example V142] | 80 | 0 | – | – |
| CCOC(=O)CCNCCCS(=O)(=O)N1CCC(Nc2nc(N)c(C(=O)c3c(F)cccc3F)s2)CC1 [Example V132] | 80 | 20 | – | – |
| Nc1nc(NC2CCN(S(=O)(=O)CCCN3CCCC(CO)C3)CC2)sc1C(=O)c1c(F)cccc1F (centres unmarked) [Example V36] | 50 | 8 | – | – |
| Nc1nc(NC2CCN(S(=O)(=O)CCCNCc3ccccc3F)CC2)sc1C(=O)c1c(F)cccc1F [Example V183, (4-Amino-2-{[1-({3-[(2-fluorobenzyl)amino]propyl}sulfonyl)-4-piperidinyl]amino}-1,3-thiazol-5-yl)(2,6-difluorophenyl)methanone.] | – | – | 4 | 90 |
| CC(C)(C)c1cc(NCCCS(=O)(=O)N2CCC(Nc3nc(N)c(C(=O)c4c(F)cccc4F)s3)CC2)no1 [Example V117] | 80 | 0 | – | – |
| Nc1nc(NC2CCN(S(=O)(=O)CCCNCCc3ncn[nH]3)CC2)sc1C(=O)c1c(F)cccc1F [Example V150] | 87 | 18 | – | – |
| Nc1nc(NC2CCN(S(=O)(=O)CCCNCc3ccncc3)CC2)sc1C(=O)c1c(F)cccc1F [Example V23] | 87 | 24 | – | – |
| CC(CN(C)C)NCCCS(=O)(=O)N1CCC(Nc2nc(N)c(C(=O)c3c(F)cccc3F)s2)CC1 (centres unmarked) [Example V126] | 84 | 6 | – | – |
| Cc1cccc(NCCCS(=O)(=O)N2CCC(Nc3nc(N)c(C(=O)c4c(F)cccc4F)s3)CC2)n1 [Example V62] | 91 | 0 | – | – |
| Nc1nc(NC2CCN(S(=O)(=O)CCCN[C@@H]3CONC3=O)CC2)sc1C(=O)c1c(F)cccc1F [Example V21] | 86 | 10 | – | – |

| Structure (SMILES) | inhibition at 0.05 µM (CDK2/Cyclin A) [%] | inhibition at 0.175 µM (HCT-116 cell line) [%] | Ki (CDK2/Cyclin A) [nM] | IC50 (HCT-116 cell line) [nM] |
| --- | --- | --- | --- | --- |
| Nc1nc(NC2CCN(S(=O)(=O)CCCN3CCCC(F)(F)C3)CC2)sc1C(=O)c1c(F)cccc1F [Example V167] | 83 | 0 | – | – |
| Nc1nc(NC2CCN(S(=O)(=O)CCCNCc3cccc(F)c3)CC2)sc1C(=O)c1c(F)cccc1F [Example V178, (4-Amino-2-{[1-({3-[(3-fluorobenzyl)amino]propyl}sulfonyl)-4-piperidinyl]amino}-1,3-thiazol-5-yl)(2,6-difluorophenyl)methanone.] | – | – | 4.6 | 80 |
| CCCCNCCCS(=O)(=O)N1CCC(Nc2nc(N)c(C(=O)c3c(F)cccc3F)s2)CC1 [Example V85] | 82 | 29 | – | – |
| CCCN(CCO)CCCS(=O)(=O)N1CCC(Nc2nc(N)c(C(=O)c3c(F)cccc3F)s2)CC1 [Example V106] | 82 | 11 | – | – |
| Nc1nc(NC2CCN(S(=O)(=O)CCCNC3CCC3)CC2)sc1C(=O)c1c(F)cccc1F [Example V63] | 78 | 13 | – | – |
| CCCN(CCC#N)CCCS(=O)(=O)N1CCC(Nc2nc(N)c(C(=O)c3c(F)cccc3F)s2)CC1 [Example V105] | 84 | 0 | – | – |
| COCCN(C)CCCS(=O)(=O)N1CCC(Nc2nc(N)c(C(=O)c3c(F)cccc3F)s2)CC1 [Example V107] | 78 | 36 | – | – |
| Nc1nc(NC2CCN(S(=O)(=O)CCCN3CCCC(O)C3)CC2)sc1C(=O)c1c(F)cccc1F (centres unmarked) [Example V77] | 72 | 7 | – | – |
| Nc1nc(NC2CCN(S(=O)(=O)CCCN3CCC(O)C3)CC2)sc1C(=O)c1c(F)cccc1F (centres unmarked) [Example V68] | 85 | 10 | – | – |
| CN(CCCS(=O)(=O)N1CCC(Nc2nc(N)c(C(=O)c3c(F)cccc3F)s2)CC1)CC(O)CO (centres unmarked) [Example V124] | 80 | 9 | – | – |
| COC1CCN(CCCS(=O)(=O)N2CCC(Nc3nc(N)c(C(=O)c4c(F)cccc4F)s3)CC2)CC1 [Example K59, {4-Amino-2-[(1-{[3-(4-methoxypiperidin-1-yl)propyl]sulfonyl}piperidin-4-yl)amino]-1,3-thiazol-5-yl}(2,6-difluorophenyl)methanone] | – | – | 11 | 270 |
| CC(O)CCNCCCS(=O)(=O)N1CCC(Nc2nc(N)c(C(=O)c3c(F)cccc3F)s2)CC1 (centres unmarked) [Example V81] | 78 | 5 | – | – |
| CC1=NNC(=O)C1CNCCCS(=O)(=O)N1CCC(Nc2nc(N)c(C(=O)c3c(F)cccc3F)s2)CC1 (centres unmarked) [Example V172] | 81 | 11 | – | – |
| CC1(C)CCCN(CCCS(=O)(=O)N2CCC(Nc3nc(N)c(C(=O)c4c(F)cccc4F)s3)CC2)C1 [Example K60, {4-Amino-2-[(1-{[3-(3,3-dimethylpiperidin-1-yl)propyl]sulfonyl}piperidin-4-yl)amino]-1,3-thiazol-5-yl}(2,6-difluorophenyl)methanone] | – | – | 13 | 120 |
| CC(=O)N1CCN(CCCS(=O)(=O)N2CCC(Nc3nc(N)c(C(=O)c4c(F)cccc4F)s3)CC2)CC1 [Example V29] | 81 | 0 | – | – |
| Nc1nc(NC2CCN(S(=O)(=O)CCCN[C@H]3CC[C@@H](CO)CC3)CC2)sc1C(=O)c1c(F)cccc1F [Example V170] | 82 | 14 | – | – |
| CC(C)CCNCCCS(=O)(=O)N1CCC(Nc2nc(N)c(C(=O)c3c(F)cccc3F)s2)CC1 [Example V60] | 84 | 18 | – | – |
